Results published in US8053553B2, “Targeting host proteinases as a therapeutic strategy against viral and bacterial pathogens” (Socpra Sciences Sante Et Humaines, priority 2007, dated 2011).
Read-outs that look alike come from different tables or passages of the source. Non-standard residues stand in square brackets, D forms with d. Residues, ends and D or L forms follow the SMILES beside them. Sar = CNCC(=O)O

Biological target: T1, furin (Homo sapiens, UniProt P09958)
T1 construct: made in house; host or cells: Drosophila S2 cells (Invitrogen expression system)
Test: biochemical
Conditions: furin, Pyr-RTKR-AMC substrate, read-out: Ki

[1] = optimization of the inhibitory peptides (Table 3)
[2] = alanine scanning mutagenesis of the H5 furin cleavage sequence (Table 2)

T1 sequence (P09958 108-794 limits assumed): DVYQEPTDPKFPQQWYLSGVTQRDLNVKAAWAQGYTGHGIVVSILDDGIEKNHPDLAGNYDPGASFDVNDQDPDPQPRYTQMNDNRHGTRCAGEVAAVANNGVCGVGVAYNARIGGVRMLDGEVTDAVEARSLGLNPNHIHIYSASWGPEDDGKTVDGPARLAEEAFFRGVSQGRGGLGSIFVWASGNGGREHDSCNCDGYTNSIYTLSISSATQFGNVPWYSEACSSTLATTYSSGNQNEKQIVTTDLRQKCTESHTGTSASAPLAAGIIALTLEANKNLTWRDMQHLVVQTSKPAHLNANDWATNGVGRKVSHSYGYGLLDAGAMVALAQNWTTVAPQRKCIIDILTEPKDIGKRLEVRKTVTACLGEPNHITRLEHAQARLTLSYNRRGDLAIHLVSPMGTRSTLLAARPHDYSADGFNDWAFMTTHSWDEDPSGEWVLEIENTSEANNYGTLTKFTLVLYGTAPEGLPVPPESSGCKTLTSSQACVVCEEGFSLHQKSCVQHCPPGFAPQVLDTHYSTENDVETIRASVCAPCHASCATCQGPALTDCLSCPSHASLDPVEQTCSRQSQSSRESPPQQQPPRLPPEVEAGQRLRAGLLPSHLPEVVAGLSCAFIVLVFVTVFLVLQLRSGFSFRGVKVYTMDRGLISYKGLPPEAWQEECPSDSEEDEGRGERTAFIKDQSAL

| Structure (SMILES) | Ki [1] [nM] | Ki [2] [nM] |
| --- | --- | --- |
| C[C@@H](O)[C@H](N)C(=O)N1CCC[C@H]1C(=O)N[C@@H](CCC(N)=O)C(=O)N[C@@H](CCCNC(=N)N)C(=O)N[C@@H](CS)C(=O)N[C@@H](CCCNC(=N)N)C(=O)N[C@@H](CCCNC(=N)N)C(=O)N[C@@H](CCCNC(=N)N)C(=O)N[C@@H](CCCCN)C(=O)N[C@@H](CCCCN)C(=O)N[C@@H](CCCNC(=N)N)C(=O)NCC(N)=O | > 100 | – |
| CC(C)[C@H](NC(=O)[C@H](CCCNC(=N)N)NC(=O)[C@H](CCCCN)NC(=O)[C@H](CCCCN)NC(=O)[C@H](C)NC(=O)[C@H](CCCNC(=N)N)NC(=O)[C@H](CCCNC(=N)N)NC(=O)[C@H](CCC(=O)O)NC(=O)[C@H](CCCNC(=N)N)NC(=O)[C@@H]1CCCN1C(=O)[C@@H](N)[C@@H](C)O)C(N)=O (H-TPRERRAKKRV-NH2) | – | > 100 |
| C[C@@H](O)[C@H](N)C(=O)N1CCC[C@H]1C(=O)N[C@@H](CCC(N)=O)C(=O)N[C@@H](CCCNC(=N)N)C(=O)N[C@@H](CCCNC(=N)N)C(=O)N[C@@H](CCCNC(=N)N)C(=O)N[C@@H](CCCNC(=N)N)C(=O)N[C@@H](CCCNC(=N)N)C(=O)N[C@@H](CCCCN)C(=O)N[C@@H](CCCCN)C(=O)N[C@@H](CCCNC(=N)N)C(=O)NCC(N)=O | > 100 | – |
| C[C@H](N)C(=O)N[C@@H](C)C(=O)N[C@@H](C)C(=O)N[C@@H](CCC(=O)O)C(=O)N[C@@H](CCCNC(=N)N)C(=O)N[C@@H](CCCNC(=N)N)C(=O)N[C@@H](CCCNC(=N)N)C(=O)N[C@@H](CCCCN)C(=O)N[C@@H](CCCCN)C(=O)N[C@@H](CCCNC(=N)N)C(N)=O (H-AAAERRRKKR-NH2) | – | > 100 |
| C[C@H](NC(=O)[C@H](C)NC(=O)[C@H](CCCNC(=N)N)NC(=O)[C@H](CCC(=O)O)NC(=O)[C@H](CCCNC(=N)N)NC(=O)[C@@H]1CCCN1C(=O)[C@@H](N)[C@@H](C)O)C(=O)N[C@@H](CCCCN)C(=O)N[C@@H](CCCCN)C(=O)N[C@@H](CCCNC(=N)N)C(=O)N(C)CC(N)=O (H-TPRERAAKKR[Sar]-NH2) | – | > 100 |
| C[C@@H](O)[C@H](N)C(=O)N1CCC[C@H]1C(=O)N[C@@H](CCC(N)=O)C(=O)N[C@@H](CCCNC(=N)N)C(=O)N[C@@H](CC(N)=O)C(=O)N[C@@H](CCCNC(=N)N)C(=O)N[C@@H](CCCNC(=N)N)C(=O)N[C@@H](CCCNC(=N)N)C(=O)N[C@@H](CCCCN)C(=O)N[C@@H](CCCCN)C(=O)N[C@@H](CCCNC(=N)N)C(=O)NCC(N)=O (H-TPQRNRRRKKRG-NH2) | > 100 | – |
| C[C@H](NC(=O)[C@H](C)NC(=O)[C@H](CCC(=O)O)NC(=O)[C@H](CCCNC(=N)N)NC(=O)[C@@H]1CCCN1C(=O)[C@@H](N)[C@@H](C)O)C(=O)N[C@@H](CCCNC(=N)N)C(=O)N[C@@H](CCCCN)C(=O)N[C@@H](CCCCN)C(=O)N[C@@H](CCCNC(=N)N)C(=O)NCC(N)=O (H-TPREAARKKRG-NH2) | – | > 100 |
| C[C@H](NC(=O)[C@H](CCCNC(=N)N)NC(=O)[C@H](CCC(N)=O)NC(=O)[C@@H]1CCCN1C(=O)[C@@H](N)[C@@H](C)O)C(=O)N[C@@H](CCCNC(=N)N)C(=O)N[C@@H](CCCNC(=N)N)C(=O)N[C@@H](CCCNC(=N)N)C(=O)N[C@@H](CCCCN)C(=O)N[C@@H](CCCCN)C(=O)N[C@@H](CCCNC(=N)N)C(=O)N[C@@H](CCCCN)C(N)=O (H-TPQRARRRKKRK-NH2) | > 100 | – |
| CC(C)[C@H](NC(=O)[C@H](CCCNC(=N)N)NC(=O)[C@H](CCCCN)NC(=O)[C@H](CCCCN)NC(=O)[C@H](CCCNC(=N)N)NC(=O)[C@H](C)NC(=O)[C@H](CCCNC(=N)N)NC(=O)[C@H](CCC(=O)O)NC(=O)[C@H](CCCNC(=N)N)NC(=O)[C@@H]1CCCN1C(=O)[C@@H](N)[C@@H](C)O)C(N)=O (H-TPRERARKKRV-NH2) | – | > 100 |
| C[C@@H](O)[C@H](N)C(=O)N1CCC[C@H]1C(=O)N[C@@H](CCC(N)=O)C(=O)N[C@@H](CCCNC(=N)N)C(=O)N[C@@H](Cc1ccccc1)C(=O)N[C@@H](CCCNC(=N)N)C(=O)N[C@@H](CCCNC(=N)N)C(=O)N[C@@H](CCCNC(=N)N)C(=O)N[C@@H](CCCCN)C(=O)N[C@@H](CCCCN)C(=O)N[C@@H](CCCNC(=N)N)C(=O)NCC(N)=O (H-TPQRFRRRKKRG-NH2) | > 100 | – |
